The experiment deals with T1, ZenR.
T1 construct: gene PXH69_30770
The following applies: read-out: Km,app; optimal conditions (55 °C, pH 8.0-9.0); 10-300 μM ZEN; no metal needed.

Molecules are shown by their SMILES.

T1 sequence (A0AAW6LW22 entry or part of it): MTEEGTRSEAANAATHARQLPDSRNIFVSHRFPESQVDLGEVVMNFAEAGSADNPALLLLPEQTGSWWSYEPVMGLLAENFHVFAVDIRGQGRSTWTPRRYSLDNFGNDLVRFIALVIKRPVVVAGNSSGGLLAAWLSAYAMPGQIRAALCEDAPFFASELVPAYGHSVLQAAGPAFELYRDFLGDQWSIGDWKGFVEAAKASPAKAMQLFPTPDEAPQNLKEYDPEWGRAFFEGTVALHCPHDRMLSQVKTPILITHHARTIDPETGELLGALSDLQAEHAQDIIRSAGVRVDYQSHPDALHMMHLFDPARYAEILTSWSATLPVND

A word on the Km: it is the substrate concentration at which the rate is half of its maximum. In the case of `C[C@H]1CCCC(=O)CCC/C=C/c2cc(O)cc(O)c2C(=O)O1` [Zearalenone], the Km worked out at 21.14 ± 0.16 µM.

These data come from publication PMC10747462, “A Hydrolase Produced by Rhodococcus erythropolis HQ Is Responsible for the Detoxification of Zearalenone” (Toxins, 2023).
